Our source for the IC50 values is patent publication US8420657B2 (Novartis AG, priority 2008, dated 2013).

Experiment [1] addresses T1, GST-JAK2(808-1132) (Homo sapiens, UniProt O60674).
T1 construct: GST-JAK2(808-1132); purchased Invitrogen (Carlsbad, USA) #4288
Kind of experiment: JAK2 kinase assay (Caliper mobility shift, LabChip 3000). Type of experiment: biochemical. An outline of the steps:
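Recombinant GST-JAK2(808-1132) kinase domain with FITC-labelled JAK3tide peptide substrate and ATP; 60 min at 30 °C, EDTA stop. Substrate/product ratio read by microfluidic mobility shift; compounds at 8 final concentrations, 10 to 0.003 μM.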

The test system of experiment [2] is JAK1/JAK2-dependent nuclear translocation of STAT1-GFP in HT1080 fibrosarcoma cells. Put plainly: STAT1 nuclear translocation assay (Cellomics), IFN-γ stimulated HT1080 STAT1-GFP cells. Type of experiment: cell-based. The following applies: Homo sapiens, HT-1080, STAT1 translocation pathway. An outline of the steps: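 HT1080 cells stably expressing STAT1-GFP, pre-treated 30 min with compound (10 μM–0.003 μM, 0.1% DMSO), then stimulated 2 h with 100 ng/ml IFN-γ, fixed and Hoechst-stained. Nuclear-cytoplasmic GFP differential imaged over ≥1000 cells/well, normalised to unstimulated and DMSO-stimulated wells for IC50.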

T1 sequence (O60674 808-1132): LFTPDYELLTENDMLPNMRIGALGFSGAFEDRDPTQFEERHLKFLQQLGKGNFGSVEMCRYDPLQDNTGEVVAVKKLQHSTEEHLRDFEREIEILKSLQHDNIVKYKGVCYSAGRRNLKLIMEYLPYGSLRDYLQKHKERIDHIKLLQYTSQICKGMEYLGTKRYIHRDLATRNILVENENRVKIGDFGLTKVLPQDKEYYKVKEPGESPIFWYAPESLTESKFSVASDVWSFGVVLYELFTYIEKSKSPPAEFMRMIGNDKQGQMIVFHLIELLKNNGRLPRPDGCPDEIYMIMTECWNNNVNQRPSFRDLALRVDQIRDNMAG

One may read the IC50 as the point on the concentration scale where inhibition reaches its midpoint. On to `CCOc1ccc(Nc2ncc3cc(C)n(-c4ccc(CN5CCOCC5)c(F)c4)c3n2)cc1OCC` [Example 168, (3,4-Diethoxy-phenyl)-[7-(3-fluoro-4-morpholin-4-ylmethyl-phenyl)-6-methyl-7H-pyrrolo[2,3-d]pyrimidin-2-yl]-amine], for which the IC50 in experiment [1] was 30.5 nM; in experiment [2], 3900 nM.

Take `CC(C)Oc1ccc(Nc2ncc3ccn(-c4cc(F)c(C(=O)N5CCOCC5)c(F)c4)c3n2)cc1` [Example 82, {2,6-Difluoro-4-[2-(4-isopropoxy-phenylamino)-pyrrolo[2,3-d]pyrimidin-7-yl]-phenyl}-morpholin-4-yl-methanone]: the figures for the IC50 in experiment [1] and in experiment [2] were 4.1 nM and 860 nM, respectively.

Regarding `CN(C)C1CCN(C(=O)c2ccc(Nc3ncc4ccn(-c5ccc(S(C)(=O)=O)cc5)c4n3)cc2)CC1` [Example 66, (4-Dimethylamino-piperidin-1-yl)-{4-[7-(4-methanesulfonyl-phenyl)-7H-pyrrolo[2,3-d]pyrimidin-2-ylamino]-phenyl}-methanone], the figures for the IC50 in experiment [1] and in experiment [2] were 3.5 nM and 75.5 nM, respectively.

Consider `Cc1ccc(Nc2ncc3ccn(-c4ccc(CC(=O)N5CCOCC5)cc4)c3n2)cc1` [Example 141, 1-Morpholin-4-yl-2-[4-(2-p-tolylamino-pyrrolo[2,3-d]pyrimidin-7-yl)-phenyl]-ethanone], for which the IC50 in experiment [1] is < 3 nM; in experiment [2], 130 nM.

`O=C(c1c(F)cc(-n2ccc3cnc(Nc4nccs4)nc32)cc1F)N1CCOCC1` [Example 246, {2,6-Difluoro-4-[2-(thiazol-2-ylamino)-pyrrolo[2,3-d]pyrimidin-7-yl]-phenyl}-morpholin-4-yl-methanone]: the IC50 in experiment [1] was 28 nM; in experiment [2], 4000 nM.

Turning to `Cc1ccc(Nc2ncc3ccn(-c4ccc(CS(C)(=O)=O)cc4)c3n2)cc1` [Example 140, [7-(4-Methanesulfonylmethyl-phenyl)-7H-pyrrolo[2,3-d]pyrimidin-2-yl]-p-tolyl-amine], the IC50 in experiment [1] worked out at 4.5 nM; in experiment [2], 310 nM.

On to `Cc1ccc(Nc2ncc3ccn(-c4ccc(CN5CCOCC5)c(F)c4)c3n2)cc1Cl` [Example 118, (3-Chloro-4-methyl-phenyl)-[7-(3-fluoro-4-morpholin-4-ylmethyl-phenyl)-7H-pyrrolo[2,3-d]pyrimidin-2-yl]-amine], for which the IC50 in experiment [1] came out at 75 nM; in experiment [2], 1520 nM.

As to `Cc1cc(Nc2ncc3ccn(-c4ccc(CN5CCOCC5)cc4)c3n2)ccc1F` [Example 123, (4-Fluoro-3-methyl-phenyl)-[7-(4-morpholin-4-ylmethyl-phenyl)-7H-pyrrolo[2,3-d]pyrimidin-2-yl]-amine], the IC50 is 28 nM in experiment [1] and 802 nM in experiment [2].

In the case of `Fc1cc(-n2ccc3cnc(Nc4ccccc4)nc32)cc(F)c1CN1CCOCC1` [Example 208, [7-(3,5-Difluoro-4-morpholin-4-ylmethyl-phenyl)-7H-pyrrolo[2,3-d]pyrimidin-2-yl]-phenyl-amine], the IC50 in experiment [1] was determined as 4.8 nM; in experiment [2] it was 442 nM.

As for `Cc1ccc(Nc2ncc3ccn(-c4ccc(C(=O)N5CCS(=O)(=O)CC5)cc4)c3n2)cn1` [Example 249, (1,1-Dioxido-thiomorpholin-4-yl)-{4-[2-(6-methyl-pyridin-3-ylamino)-pyrrolo[2,3-d]pyrimidin-7-yl]-phenyl}-methanone], the IC50 came to 4.3 nM in experiment [1] and 815 nM in experiment [2].

On to `CN1CCN(C(=O)c2cc(Nc3ncc4ccn(-c5ccc(S(C)(=O)=O)cc5)c4n3)ccc2F)CC1` [Example 76, {2-Fluoro-5-[7-(4-methanesulfonyl-phenyl)-7H-pyrrolo[2,3-d]pyrimidin-2-ylamino]-phenyl}-(4-methyl-piperazin-1-yl)-methanone], for which the IC50 in experiment [1] worked out at 38 nM; in experiment [2], 934 nM.

As to `N#Cc1ccc(Nc2ncc3ccn(-c4cc(F)c(CN5CCOCC5)c(F)c4)c3n2)cc1` [Example 136, 4-[7-(3,5-Difluoro-4-morpholin-4-ylmethyl-phenyl)-7H-pyrrolo[2,3-d]pyrimidin-2-ylamino]-benzonitrile], the figures for the IC50 in experiment [1] and in experiment [2] were 11 nM and 775 nM, respectively.

As to `Cc1ccc(Nc2ncc3ccn(-c4ccc(C(=O)N5CCOCC5)c(C)c4)c3n2)cc1C` [Example 294, {4-[2-(3,4-Dimethyl-phenylamino)-pyrrolo[2,3-d]pyrimidin-7-yl]-2-methyl-phenyl}-morpholin-4-yl-methanone], the IC50 in experiment [1] is < 3 nM; in experiment [2] it was 415 nM.

Regarding `CCOc1ccc(Nc2ncc3ccn(-c4ccc(CN5CCOCC5)cc4)c3n2)cc1OCC` [Example 147, (3,4-Diethoxy-phenyl)-[7-(4-morpholin-4-ylmethyl-phenyl)-7H-pyrrolo[2,3-d]pyrimidin-2-yl]-amine], the values for the IC50 in experiment [1] and in experiment [2] were < 3 nM and 33 nM, respectively.

As to `Cc1ccc(Nc2ncc3ccn(-c4cc(F)c(CN5CCN(C(C)C)CC5)c(F)c4)c3n2)cc1C` [Example 305, {7-[3,5-Difluoro-4-(4-isopropyl-piperazin-1-ylmethyl)-phenyl]-7H-pyrrolo[2,3-d]pyrimidin-2-yl}-(3,4-dimethyl-phenyl)-amine], the figures for the IC50 in experiment [1] and in experiment [2] were 26 nM and 2680 nM, respectively.

As to `CCN1CCCC1CNC(=O)c1ccc(Nc2ncc3ccn(-c4ccc(S(C)(=O)=O)cc4)c3n2)cc1` (stereo not drawn) [Example 68, N-(1-Ethyl-pyrrolidin-2-ylmethyl)-4-[7-(4-methanesulfonyl-phenyl)-7H-pyrrolo[2,3-d]pyrimidin-2-ylamino]-benzamide], the IC50 in experiment [1] is < 3 nM; in experiment [2] it was 105 nM.

For `CN1CCN(Cc2ccc(Nc3ncc4ccn(-c5cc(F)c(CN6CCOCC6)c(F)c5)c4n3)cc2)CC1` [Example 173, [7-(3,5-Difluoro-4-morpholin-4-ylmethyl-phenyl)-7H-pyrrolo[2,3-d]pyrimidin-2-yl]-[4-(4-methyl-piperazin-1-ylmethyl)-phenyl]-amine], the IC50 in experiment [1] came out at 5.5 nM; in experiment [2], 235 nM.

As to `Cc1ccc(Nc2ncc3ccn(-c4ccc(CC(=O)N5CCN(CCO)CC5)cc4)c3n2)cc1C` [Example 212, 2-{4-[2-(3,4-Dimethyl-phenylamino)-pyrrolo[2,3-d]pyrimidin-7-yl]-phenyl}-1-[4-(2-hydroxy-ethyl)-piperazin-1-yl]-ethanone], the IC50 in experiment [1] was < 3 nM; in experiment [2], 106 nM.

For the compound `COc1cc(Nc2ncc3ccn(-c4ccc(C(=O)N5CCOCC5)c(F)c4)c3n2)ccc1C` [Example 303, {2-Fluoro-4-[2-(3-methoxy-4-methyl-phenylamino)-pyrrolo[2,3-d]pyrimidin-7-yl]-phenyl}-morpholin-4-yl-methanone], the figures for the IC50 in experiment [1] and in experiment [2] were 4.9 nM and 295 nM, respectively.

For the compound `CCN1CCN(Cc2ccc(-n3ccc4cnc(Nc5ccc(OC(C)C)cc5)nc43)cc2F)CC1` [Example 106, {7-[4-(4-Ethyl-piperazin-1-ylmethyl)-3-fluoro-phenyl]-7H-pyrrolo[2,3-d]pyrimidin-2-yl}-(4-isopropoxy-phenyl)-amine], the IC50 was determined as 33 nM in experiment [1] and 8380 nM in experiment [2].

For the compound `CC(C)Oc1ccc(Nc2ncc3ccn(-c4ccc(C5(C(=O)N6CCOCC6)CC5)cc4)c3n2)cc1` [Example 84, (1-{4-[2-(4-Isopropoxy-phenylamino)-pyrrolo[2,3-d]pyrimidin-7-yl]-phenyl}-cyclopropyl)-morpholin-4-yl-methanone], the figures for the IC50 in experiment [1] and in experiment [2] were < 3 nM and 275 nM, respectively.

Take `CN1CCN(c2cccc(Nc3ncc4ccn(-c5cc(F)c(CN6CCOCC6)c(F)c5)c4n3)c2)CC1` [Example 174, [7-(3,5-Difluoro-4-morpholin-4-ylmethyl-phenyl)-7H-pyrrolo[2,3-d]pyrimidin-2-yl]-[3-(4-methyl-piperazin-1-yl)-phenyl]-amine]: the IC50 in experiment [1] was < 3 nM; in experiment [2], 150 nM.

Take `Cn1cc(Nc2ncc3ccn(-c4ccc(C(=O)N5CCOCC5)cc4)c3n2)cn1` [Example 253, {4-[2-(1-Methyl-1H-pyrazol-4-ylamino)-pyrrolo[2,3-d]pyrimidin-7-yl]-phenyl}-morpholin-4-yl-methanone]: the IC50 in experiment [1] amounted to 7.1 nM; in experiment [2], 130 nM.

On to `CCN1CCN(Cc2c(F)cc(-n3ccc4cnc(Nc5ccc(F)c(C)c5)nc43)cc2F)CC1=O` [Example 134, 4-{2,6-Difluoro-4-[2-(4-fluoro-3-methyl-phenylamino)-pyrrolo[2,3-d]pyrimidin-7-yl]-benzyl}-1-ethyl-piperazin-2-one], for which the IC50 amounted to 20.5 nM in experiment [1] and 1880 nM in experiment [2].

With `O=C(c1ccc(Nc2ncc3ccn(-c4cc(F)c(CN5CCCC5)c(F)c4)c3n2)cc1)N1CCOCC1` [Example 178, {4-[7-(3,5-Difluoro-4-pyrrolidin-1-ylmethyl-phenyl)-7H-pyrrolo[2,3-d]pyrimidin-2-ylamino]-phenyl}-morpholin-4-yl-methanone], the results for the IC50 in experiment [1] and in experiment [2] were 9.1 nM and 790 nM, respectively.

Turning to `COCc1ccc(Nc2ncc3ccn(-c4cc(F)c(CN5CCCC5)c(F)c4)c3n2)cc1` [Example 179, [7-(3,5-Difluoro-4-pyrrolidin-1-ylmethyl-phenyl)-7H-pyrrolo[2,3-d]pyrimidin-2-yl]-(4-methoxymethyl-phenyl)-amine], the figures for the IC50 in experiment [1] and in experiment [2] were 10.4 nM and 1520 nM, respectively.

`Cc1ccc(Nc2ncc3ccn(-c4cc(F)c(CN5CCNC(=O)C5)c(F)c4)c3n2)cc1CN1CCN(C)CC1` [Example 343, 4-(2,6-Difluoro-4-{2-[4-methyl-3-(4-methyl-piperazin-1-ylmethyl)-phenylamino]-pyrrolo[2,3-d]pyrimidin-7-yl}-benzyl)-piperazin-2-one]: the IC50 in experiment [1] is ≤ 3 nM; in experiment [2], 151 nM.
